Source: patent US20230406885A1, “CYCLIC PEPTIDES FOR TRAPPING INTERLEUKIN-1 BETA” (MERCK SHARP & DOHME LLC, priority 2022, published 2023)
*1 amine or outer side, *2 acyl side, *3 side chain or, on linkers, in order; H or OH if unused. Where a SMILES comes first, the peptide text is derived from it. [ ]: non-standard residue; d: D form. Trp(βS-Me,4-F) = C[C@@H](c1c[nH]c2cccc(F)c12)[C@H](N)C(=O)O; Bip(4'-COOH) = N[C@@H](Cc1ccc(-c2ccc(C(=O)O)cc2)cc1)C(=O)O; X1 = CC(=O)N1CCN(c2ccc(C[C@H](N[*:1])C(=O)[*:2])cn2)CC1; 1Nal(3S-Me) = C[C@@H](c1cccc2ccccc12)[C@H](N)C(=O)O; Phe(4-COOH) = N[C@@H](Cc1ccc(C(=O)O)cc1)C(=O)O; h3Pal(5-CN) = N#Cc1cncc(CC[C@H](N)C(=O)O)c1; Pro(4R-NH2) = N[C@H]1CN[C@H](C(=O)O)C1; AEF = NCCOc1ccc(C[C@H](N)C(=O)O)cc1; hTyr = N[C@@H](CCc1ccc(O)cc1)C(=O)O; hCha = N[C@@H](CCC1CCCCC1)C(=O)O; tBuAla = CC(C)(C)C[C@H](N)C(=O)O; Aad = N[C@@H](CCCC(=O)O)C(=O)O; dNle = CCCC[C@@H](N)C(=O)O; dOrn = NCCC[C@@H](N)C(=O)O; dNva = CCC[C@@H](N)C(=O)O; Orn = NCCC[C@H](N)C(=O)O; dNMeA = CN[C@H](C)C(=O)O; Dab = NCC[C@H](N)C(=O)O; Dap = NC[C@H](N)C(=O)O

These compounds were tested against T1, Recombinant human IL-1β (Homo sapiens, UniProt P01584) (assay: IL-6 assay in MRC5 cells: inhibition of IL-1β induced IL-6 secretion (AlphaLISA)). Details: inhibition of IL-1β induced IL-6 secretion in MRC5 cells; read-out: MRC5 IC50.
T1 construct: purchased BioLegend 579404
Type: cell-based
How it was run: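 IL-1β at 2×EC80 in seeding medium (EMEM, 0.025% BSA) preincubated 1 h at ambient temperature with compound, then 3000 MRC5 cells/well added and incubated overnight at 37 °C, 5% CO2. IL-6 in conditioned medium quantified by AlphaLISA; IC50 from 4-parameter logistic fit.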

T1 sequence (P01584 117-269): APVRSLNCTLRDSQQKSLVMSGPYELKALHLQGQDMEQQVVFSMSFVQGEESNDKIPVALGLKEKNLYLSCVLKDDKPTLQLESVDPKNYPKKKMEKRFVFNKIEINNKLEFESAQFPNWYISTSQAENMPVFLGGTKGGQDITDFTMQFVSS

IC50 [nM]	Compound
0.017	CC(=O)N1CCN(c2ccc(C[C@@H]3NC(=O)[C@H](CCc4cncc(C#N)c4)NC(=O)[C@@H](C)NC(=O)[C@H](CC(C)C)NC(=O)[C@H](CCCC(N)=O)NC(=O)[C@H](Cc4ccc(-c5ccc(C(=O)O)cc5)cc4)NC(=O)CNC(=O)[C@@H](C)N(C)C(=O)[C@H](CC(=O)O)NC(=O)[C@H]([C@@H](C)c4cccc5ccccc45)NC(=O)[C@@H]4C[C@@H](N)CN4C(=O)CNC(=O)[C@H](Cc4ccc(C(=O)O)cc4)NC(=O)[C@H](Cc4c[nH]c5ccccc45)NC3=O)cn2)CC1 [Example 176] (cyclo([X1]W[Phe(4-COOH)]G[Pro(4R-NH2)][1Nal(3S-Me)]D[dNMeA]G[Bip(4'-COOH)][Aad](NH2)L[dA][h3Pal(5-CN)]))
0.019	CC(=O)N1CCN(c2ccc(C[C@@H]3NC(=O)[C@H](CCc4cncc(C#N)c4)NC(=O)[C@@H](CC(C)C)NC(=O)[C@H](CC(C)C)NC(=O)[C@H](CCCCN)NC(=O)[C@H](Cc4ccc(-c5ccc(C(=O)O)cc5)cc4)NC(=O)CNC(=O)[C@@H](C)N(C)C(=O)[C@H](CC(=O)O)NC(=O)[C@H]([C@@H](C)c4cccc5ccccc45)NC(=O)[C@@H]4C[C@@H](N)CN4C(=O)CNC(=O)[C@H](Cc4ccc(C(=O)O)cc4)NC(=O)[C@H](Cc4c[nH]c5ccccc45)NC3=O)cn2)CC1 [Example 178] (cyclo([X1]W[Phe(4-COOH)]G[Pro(4R-NH2)][1Nal(3S-Me)]D[dNMeA]G[Bip(4'-COOH)]KL[dL][h3Pal(5-CN)]))
0.017	CCCC[C@H]1NC(=O)[C@H](CC(C)C)NC(=O)[C@H](CCCCN)NC(=O)[C@H](Cc2ccc(-c3ccc(C(=O)O)cc3)cc2)NC(=O)CNC(=O)[C@@H](C)N(C)C(=O)[C@H](CC(=O)O)NC(=O)[C@H]([C@@H](C)c2cccc3ccccc23)NC(=O)[C@@H]2C[C@@H](N)CN2C(=O)CNC(=O)[C@H](Cc2ccc(C(=O)O)cc2)NC(=O)[C@H](Cc2c[nH]c3ccccc23)NC(=O)[C@H](Cc2ccc(N3CCN(C(C)=O)CC3)nc2)NC(=O)[C@H](CCc2cncc(C#N)c2)NC1=O [Example 179] (cyclo([X1]W[Phe(4-COOH)]G[Pro(4R-NH2)][1Nal(3S-Me)]D[dNMeA]G[Bip(4'-COOH)]KL[dNle][h3Pal(5-CN)]))
0.021	CCC[C@H]1NC(=O)[C@H](CC(C)C)NC(=O)[C@H](CCCCN)NC(=O)[C@H](Cc2ccc(-c3ccc(C(=O)O)cc3)cc2)NC(=O)CNC(=O)[C@@H](C)N(C)C(=O)[C@H](CC(=O)O)NC(=O)[C@H]([C@@H](C)c2cccc3ccccc23)NC(=O)[C@@H]2C[C@@H](N)CN2C(=O)CNC(=O)[C@H](Cc2ccc(C(=O)O)cc2)NC(=O)[C@H](Cc2c[nH]c3ccccc23)NC(=O)[C@H](Cc2ccc(N3CCN(C(C)=O)CC3)nc2)NC(=O)[C@H](CCc2cncc(C#N)c2)NC1=O [Example 180] (cyclo([X1]W[Phe(4-COOH)]G[Pro(4R-NH2)][1Nal(3S-Me)]D[dNMeA]G[Bip(4'-COOH)]KL[dNva][h3Pal(5-CN)]))
0.015	CC(=O)N1CCN(c2ccc(C[C@@H]3NC(=O)[C@H](CCc4cncc(C#N)c4)NC(=O)[C@@H](C)NC(=O)[C@H](CC(C)(C)C)NC(=O)[C@H](CCCCN)NC(=O)[C@H](Cc4ccc(-c5ccc(C(=O)O)cc5)cc4)NC(=O)CNC(=O)[C@@H](C)N(C)C(=O)[C@H](CC(=O)O)NC(=O)[C@H]([C@@H](C)c4cccc5ccccc45)NC(=O)[C@@H]4C[C@@H](N)CN4C(=O)CNC(=O)[C@H](Cc4ccc(C(=O)O)cc4)NC(=O)[C@H](Cc4c[nH]c5ccccc45)NC3=O)cn2)CC1 [Example 181] (cyclo([X1]W[Phe(4-COOH)]G[Pro(4R-NH2)][1Nal(3S-Me)]D[dNMeA]G[Bip(4'-COOH)]K[tBuAla][dA][h3Pal(5-CN)]))

The next lines start with the compound.

Compound	IC50 [nM]
CC(=O)NCCOc1ccc(C[C@@H]2NC(=O)[C@H](CCc3ccc(O)cc3)NC(=O)[C@@H](CCCCN)NC(=O)[C@H](CC(C)C)NC(=O)[C@H](Cc3c[nH]c4ccccc34)NC(=O)[C@H](Cc3ccc(-c4ccc(C(=O)O)cc4)cc3)NC(=O)CNC(=O)[C@@H](C)N(C)C(=O)[C@H](CC(=O)O)NC(=O)[C@H]([C@@H](C)c3c[nH]c4cccc(F)c34)NC(=O)[C@@H]3C[C@@H](N)CN3C(=O)CNC(=O)[C@H](Cc3ccc(C(=O)O)cc3)NC(=O)[C@H](Cc3c[nH]c4ccccc34)NC2=O)cc1 [Example 169] (cyclo([AEF](Ac)W[Phe(4-COOH)]G[Pro(4R-NH2)][Trp(βS-Me,4-F)]D[dNMeA]G[Bip(4'-COOH)]WL[dK][hTyr]))	0.112
CC(=O)NCCOc1ccc(C[C@@H]2NC(=O)[C@H](CCc3ccc(O)cc3)NC(=O)[C@@H](CCCN)NC(=O)[C@H](CC(C)C)NC(=O)[C@H](Cc3c[nH]c4ccccc34)NC(=O)[C@H](Cc3ccc(-c4ccc(C(=O)O)cc4)cc3)NC(=O)CNC(=O)[C@@H](C)N(C)C(=O)[C@H](CC(=O)O)NC(=O)[C@H]([C@@H](C)c3c[nH]c4cccc(F)c34)NC(=O)[C@@H]3C[C@@H](N)CN3C(=O)CNC(=O)[C@H](Cc3ccc(C(=O)O)cc3)NC(=O)[C@H](Cc3c[nH]c4ccccc34)NC2=O)cc1 [Example 170] (cyclo([AEF](Ac)W[Phe(4-COOH)]G[Pro(4R-NH2)][Trp(βS-Me,4-F)]D[dNMeA]G[Bip(4'-COOH)]WL[dOrn][hTyr]))	0.0966
CC(=O)NCCOc1ccc(C[C@@H]2NC(=O)[C@H](CCc3ccc(O)cc3)NC(=O)[C@@H](CO)NC(=O)[C@H](CC(C)C)NC(=O)[C@H](Cc3c[nH]c4ccccc34)NC(=O)[C@H](Cc3ccc(-c4ccc(C(=O)O)cc4)cc3)NC(=O)CNC(=O)[C@@H](C)N(C)C(=O)[C@H](CC(=O)O)NC(=O)[C@H]([C@@H](C)c3c[nH]c4cccc(F)c34)NC(=O)[C@@H]3C[C@@H](N)CN3C(=O)CNC(=O)[C@H](Cc3ccc(C(=O)O)cc3)NC(=O)[C@H](Cc3c[nH]c4ccccc34)NC2=O)cc1 [Example 171] (cyclo([AEF](Ac)W[Phe(4-COOH)]G[Pro(4R-NH2)][Trp(βS-Me,4-F)]D[dNMeA]G[Bip(4'-COOH)]WL[dS][hTyr]))	0.145
CC(=O)NCCOc1ccc(C[C@@H]2NC(=O)[C@H](CCc3ccc(O)cc3)NC(=O)[C@@H](C)NC(=O)[C@H](CO)NC(=O)[C@H](Cc3c[nH]c4ccccc34)NC(=O)[C@H](Cc3ccc(-c4ccc(C(=O)O)cc4)cc3)NC(=O)CNC(=O)[C@@H](C)N(C)C(=O)[C@H](CC(=O)O)NC(=O)[C@H]([C@@H](C)c3c[nH]c4cccc(F)c34)NC(=O)[C@@H]3C[C@@H](N)CN3C(=O)CNC(=O)[C@H](Cc3ccc(C(=O)O)cc3)NC(=O)[C@H](Cc3c[nH]c4ccccc34)NC2=O)cc1 [Example 172] (cyclo([AEF](Ac)W[Phe(4-COOH)]G[Pro(4R-NH2)][Trp(βS-Me,4-F)]D[dNMeA]G[Bip(4'-COOH)]WS[dA][hTyr]))	0.246
CC(=O)NCCOc1ccc(C[C@@H]2NC(=O)[C@H](Cc3ccc(OCCNC(C)=O)cc3)NC(=O)[C@@H](C)NC(=O)[C@H](CO)NC(=O)[C@H](Cc3c[nH]c4ccccc34)NC(=O)[C@H](Cc3ccc(-c4ccc(C(=O)O)cc4)cc3)NC(=O)CNC(=O)[C@@H](C)N(C)C(=O)[C@H](CC(=O)O)NC(=O)[C@H]([C@@H](C)c3c[nH]c4cccc(F)c34)NC(=O)[C@@H]3C[C@@H](N)CN3C(=O)CNC(=O)[C@H](Cc3ccc(C(=O)O)cc3)NC(=O)[C@H](Cc3c[nH]c4ccccc34)NC2=O)cc1 [Example 173] (cyclo([AEF](Ac)W[Phe(4-COOH)]G[Pro(4R-NH2)][Trp(βS-Me,4-F)]D[dNMeA]G[Bip(4'-COOH)]WS[dA][AEF](Ac)))	0.959
CC(=O)N1CCN(c2ccc(C[C@@H]3NC(=O)[C@H](CCC4CCCCC4)NC(=O)[C@@H](C)NC(=O)[C@H](CC(C)C)NC(=O)[C@H](CCN)NC(=O)[C@H](Cc4ccc(-c5ccc(C(=O)O)cc5)cc4)NC(=O)CNC(=O)[C@@H](C)N(C)C(=O)[C@H](CC(=O)O)NC(=O)[C@H]([C@@H](C)c4cccc5ccccc45)NC(=O)[C@@H]4C[C@@H](N)CN4C(=O)CNC(=O)[C@H](Cc4ccc(C(=O)O)cc4)NC(=O)[C@H](Cc4c[nH]c5ccccc45)NC3=O)cn2)CC1 [Example 174] (cyclo([X1]W[Phe(4-COOH)]G[Pro(4R-NH2)][1Nal(3S-Me)]D[dNMeA]G[Bip(4'-COOH)][Dab]L[dA][hCha]))	0.015
CC(=O)N1CCN(c2ccc(C[C@@H]3NC(=O)[C@H](CCC4CCCCC4)NC(=O)[C@@H](C)NC(=O)[C@H](CC(C)C)NC(=O)[C@H](CN)NC(=O)[C@H](Cc4ccc(-c5ccc(C(=O)O)cc5)cc4)NC(=O)CNC(=O)[C@@H](C)N(C)C(=O)[C@H](CC(=O)O)NC(=O)[C@H]([C@@H](C)c4cccc5ccccc45)NC(=O)[C@@H]4C[C@@H](N)CN4C(=O)CNC(=O)[C@H](Cc4ccc(C(=O)O)cc4)NC(=O)[C@H](Cc4c[nH]c5ccccc45)NC3=O)cn2)CC1 [Example 175] (cyclo([X1]W[Phe(4-COOH)]G[Pro(4R-NH2)][1Nal(3S-Me)]D[dNMeA]G[Bip(4'-COOH)][Dap]L[dA][hCha]))	0.016
CC(=O)N1CCN(c2ccc(C[C@@H]3NC(=O)[C@H](CCC4CCCCC4)NC(=O)[C@@H](C)NC(=O)[C@H](CC(C)C)NC(=O)[C@H](CCCCN)NC(=O)[C@H](Cc4ccc(-c5ccc(C(=O)O)cc5)cc4)NC(=O)CNC(=O)[C@@H](C)N(C)C(=O)[C@H](CC(=O)O)NC(=O)[C@H]([C@@H](C)c4cccc5ccccc45)NC(=O)[C@@H]4C[C@@H](N)CN4C(=O)CNC(=O)[C@H](Cc4ccc(C(=O)O)cc4)NC(=O)[C@H](Cc4c[nH]c5ccccc45)NC3=O)cn2)CC1 [Example 177] (cyclo([X1]W[Phe(4-COOH)]G[Pro(4R-NH2)][1Nal(3S-Me)]D[dNMeA]G[Bip(4'-COOH)]KL[dA][hCha]))	0.013
CC(=O)N1CCN(c2ccc(C[C@@H]3NC(=O)[C@H](CCC4CCCCC4)NC(=O)[C@@H](C)NC(=O)[C@H](CC(C)C)NC(=O)[C@H](CCCN)NC(=O)[C@H](Cc4ccc(-c5ccc(C(=O)O)cc5)cc4)NC(=O)CNC(=O)[C@@H](C)N(C)C(=O)[C@H](CC(=O)O)NC(=O)[C@H]([C@@H](C)c4cccc5ccccc45)NC(=O)[C@@H]4C[C@@H](N)CN4C(=O)CNC(=O)[C@H](Cc4ccc(C(=O)O)cc4)NC(=O)[C@H](Cc4c[nH]c5ccccc45)NC3=O)cn2)CC1 [Example 182] (cyclo([X1]W[Phe(4-COOH)]G[Pro(4R-NH2)][1Nal(3S-Me)]D[dNMeA]G[Bip(4'-COOH)][Orn]L[dA][hCha]))	0.013
